Experiment: Solid-state properties of Form A (hygroscopicity)
Type: physicochemical
Settings: crystalline anhydrate

**Q.** With `CN1CCC(C(=O)c2cccc(NC(=O)c3c(F)cc(F)cc3F)n2)CC1.O=C(O)CCC(=O)O` [Form A, 2,4,6-Trifluoro-N-(6-(1-methylpiperidine-4-carbonyl)pyridine-2-yl)benzamide Hemisuccinate] as the compound, how does the hygroscopicity read?
**A.** non-hygroscopic
